Reference: patent US8158667B2, “Topical treatment of cataracts in dogs” (priority 2006, dated 2012)

Columns and labels:
[1] = test system: accumulation of sorbitol; settings: fold more effective than sorbinil; '704 patent; cited from earlier work
[2] = biological target: aldose reductase (Homo sapiens, UniProt P15121); settings: '704 patent; cited from earlier work
[3] = systemic half-life in dogs; settings: dog, in vivo
Description: Topical administration of the ARI 2R,4S-6-fluoro-2-methyl-spiro[chroman-4,4′-imidazolidine]-2′,5′-dione (2-MS) is the preferred method for preventing cataracts and ocular complications in diabetic dogs and cats. As a result of the short, 3 hr systemic half-life of 2-MS in dogs and subsequent studies conducted in galactose-fed dogs, it is estimated that, at minimum, a multiple 4-times/day oral dose is required for efficacy. Topical application permits a lower dosage and a lower frequency of administration. Topical application will also minimize the tendency of diabetic dogs to have their liver functions compromised because topical administration will bypass first pass liver metabolism. The topical treatment of the present invention will not only arrest the progression of sugar cataracts, but also reduces the density of early cortical cataracts. […] The topical treatment should also delay the formation of other ocular diabetes associated complications associated with aldose reductase, as summarized above.

[4] = stability of 2R-MS in carbomer gel emulsion; assay type: physicochemical; settings: room temperature
Method: To maximize the topical administration of 2R-MS, vehicles or carriers of different viscosities comprised of polymers, gums, or viscosity enhancers were prepared. Formulations containing 3% of the AR inhibitor 2R-MS were prepared using the five different vehicles, which included 0.5% hydroxypropyl methylcellulose (HPMC); 0.5% xanthan gum; 0.5% gellan gum; 0.25% carbopol; and 0.25% carbopol (0.25% w/v)+0.25% HPMC. All were prepared in modified Sorensen's Phosphate Buffer, pH of 7.4. The drug and each vehicle were suspended directly in a sterile eye drop bottle by vortexing vigorously for at least one minute. […] All suspensions were vortexed prior to topical administration. An additional topical carbomer gel formulation consisting of 2.5% water soluble high molecular weight polymer of acrylic acid cross-linked with a polyether of sucrose was also developed. Carbomers are widely used in products for the treatment of dry eye. Crystalline 2R-MS was ground into a fine powder and mixed into an emulsion according to standard techniques.

half-life [3] [h] | SMILES | effectiveness in preventing the accumulation of sorbitol relative to sorbinil [1] | inhibiting aldose reductase, compared with sorbinil [2] | stability in the emulsion [4]
 | CC1CC2(NC(=O)NC2=O)c2cc(F)ccc2O1 (stereo not shown) [2-methyl sorbinil, 6-fluoro-2-methyl-spiro-[chroman-4,4′-imidazolidine]-2′,5′-dione] | 2-10 times | more effective in inhibiting aldose reductase | 
3 | C[C@@H]1C[C@]2(NC(=O)NC2=O)c2cc(F)ccc2O1 [2R-MS, 2R,4S-6-fluoro-2-methyl-spiro[chroman-4,4′-imidazolidine]-2′,5′-dione] |  |  | stable in the emulsion for a minimum of ten months
